From patent US12551469B2 (priority 2020, dated 2026)

How the values were obtained:
COVID-19 pneumonia = assay: Randomized, double-blind, placebo-controlled Phase 2a study of opaganib in COVID-19 pneumonia; format: in vivo, human
From the text: This was a phase 2a, proof of concept, multi-center randomized double-blind, parallel arm, placebo-controlled study. After informed consent was obtained, patients entered a screening phase for no more than 3 days, to determine eligibility. […] Treatment assignments remained blinded to the patient, investigator and hospital staff, as well as the sponsor. As there was no consensus for a definitive treatment specifically targeting the SARS-CoV-2 virus causing COVID-19 (Wilson, 2020), standard of care referred to regional, institutional or physician directed therapies, that were implemented during the COVID-19 pandemic.
Study drug was to be administered every day for 14 days (Day 1 to Day 14), unless the patient had been discharged from the hospital without requiring supplemental oxygen, in which case study drug would only be administered to Day 10.
Two patients were randomized in each group but not treated. […] Two patients in the opaganib arm experienced adverse events such that study drug was terminated, while one placebo patient was terminated due to an adverse event.
The primary efficacy endpoint calculated for each patient the area under the curve of the supplemental oxygen requirement through day 14, using the trapezoidal rule after subtracting the baseline oxygen requirement at each day. Days where no supplementary oxygen was needed, were recorded as 0. If several values of oxygen requirement (L/min) are recorded in a certain day, for the primary analysis the highest of these values were taken. In the primary analysis, for patients who die before Day 14, or require intubation and mechanical ventilation, missing daily values were assigned the maximal supplemental oxygen flow requirement of 8 L/min. […]
Supplemental oxygen requirement up to Day 14 was collected even if a patient discontinued treatment prior to Day 14 but continued in the study to Day 14. […] A sensitivity analysis to the above missing data handling approach was performed using an AUC summary statistics approach, in which groups AUC is calculated from the estimated parameters of a Repeated-Measures model. […]

COVID-19 infection = assay: Pilot / compassionate use study of opaganib in hospitalized patients with COVID-19 pneumonia; format: in vivo, human
Protocol: Patients entered a screening period of up to 1 week. Eligible patients entered the treatment period for up to 2 weeks. All participants were followed for 2 weeks after their last dose of study drug, at the end of the 2 week treatment period, or once they had 2 consecutive daily negative viral swabs for the COVID-19 virus or at after premature drug discontinuation prior to Day 14. The maximum duration of study participation was 35 days […].
Each dose is administered with food or 15-30 minutes after tube-feeding, where appropriate. […] These patients had moderate to severe COVID-19-related pneumonia with hypoxia on supplemental oxygen.
Five patients were included in the analysis, and for comparison purposes, we used a control group with same-sex, same-severity patients (baseline characteristics). Univariate comparisons between the groups were performed with chi-square test for categorical variables and t-test or MannWhitney U-test for continuous variables, as appropriate. Time variables were compared with Cox proportional hazard regression, adjusted for age and background illnesses. CRP and lymphocyte changes were compared utilizing a repeated measures general linear model with a Bonferroni correction for multiple comparison.

[1] = test system: human bronchial epithelial cells (HBEC); conditions: male
[2] = test system: SARS-CoV-2 clinical isolate (2019-nCoV/USA-WA1/2020); assay: Anti-viral activity against SARS-CoV-2 in HBEC (EpiAirway) ALI cultures, apical viral titer by TCID50 assay; format: cell-based
ARDS induced thrombosis = assay: Rat venous stasis (Wessler) model after LPS-induced lung injury (ARDS); format: in vivo, Sprague-Dawley rats
From the text: This study assessed the efficacy of ABC294640 to reduce the incidence of adverse thromboembolic events in situ in acute respiratory distress syndrome (ARDS) conditions using a rat venous stasis model. This assay is designed to measure thrombotic risks following LPS-induced lung injury. LPS-induced lung injury is one of the most commonly used rodent models for ARDS and was described to mimic the neutrophilic inflammatory response observed in ARDS patients. The mechanism of LPS-induced ARDS is based on damage to endothelial cells and a systemic inflammatory response.
The venous stasis (Wessler) test in animals has been used extensively for over 40 years as a laboratory measure for in vivo hypercoagulability.
Test compound was administered by oral gavage 3 hours post-instillation and 24, 48 and 72 hours post-instillation, at a dose of 250 mg/kg. The appropriate amount of LPS from E. coli (O55:B5) was diluted in saline to obtain a final concentration of 400 μg/mL. This solution was given by intratracheal instillation (0.5 mL/kg). The vehicle was composed of PBS pH 7.4±0.1. ABC294640 was weighed and transferred in vehicle (PBS, 0.375%, pH 7.4) to obtain a final solution at 25 mg/mL. ABC294640 solution is stirred for 10 minutes at room temperature prior to dosing. This solution was given by oral gavage (250 mg/kg, 10 mL/kg).
Sprague-Dawley rats (male) weighing between 275 and 400 g were used for this study. Animals were randomly assigned to a treatment group by the Study Director. Food and water were given ad libitum. Observation for behavior and general health status were done until the sacrifice. The body weight was recorded before the instillation and 24, 48 and 72 hours post-instillation.
In this study, ARDS was induced by intratracheal instillation of LPS. Throughout the ARDS induction and development process, animal was dosed by oral gavage with vehicle or ABC294640 (3 h, 24 h, 48 and 72 hours post-instillation). […] The stasis was maintained for 30 minutes. The segment was then excised and its content scored. Subsequently, animal was euthanized by exsanguination.
• 1. Prior LPS or saline instillation, the functional respiratory parameters of all rat was assessed by whole-body plethysmography and SpO2 was evaluated on conscious rat with a collar probe pulse oximeter. Rat was first acclimatized to the plethysmograph chamber prior to the physiological assessment. The respiratory rate, the Penh and the inspiratory/expiratory time measurements was analyzed. • 2. […]
• 5. Rats were evaluated periodically to ensure animal well-being (general behavior and daily body weight). • 6. […] SpO2 and whole-body plethysmography were also evaluated 24, 48 and 72 hours post-instillation. • 8. […] The thrombi was measured, weighed and scored on a scale from 0 to 4 (see Table 2).

Question: Which results are given for `Cl.O=C(NCc1ccncc1)C12CC3CC(C1)CC(c1ccc(Cl)cc1)(C3)C2` [opaganib, 3-(4-chlorophenyl)-adamantane-1-carboxylic acid (pyridin-4-ylmethyl) amide, hydrochloride salt]?
Answer: patients with adverse events such that study drug was terminated (COVID-19 pneumonia; opaganib arm, one placebo patient): Two; patients with serious adverse events (SAEs) vs. placebo arm (COVID-19 pneumonia; top-line results): fewer patients suffered from serious adverse events (SAEs); safety vs. placebo arm (COVID-19 pneumonia; top-line results): safe, with no material safety differences; Clinical Assessment (COVID-19 infection; Patient 1 (14 d), started as severe on maximal OptiFlow 3 Apr. 2020, one negative viral swab as of 22 April): 3 Apr. 2020; RA by 16 April.; Clinical Assessment (COVID-19 infection; Patient 2 (14 d), started as severe+, planning for intubation 7 Apr. 2020, RA by 20 Apr. 2020, D/C on 22 Apr. 2020): 7 Apr. 2020; RA by 20; Clinical Assessment (COVID-19 infection; Patient 3 (7 d), moderate-severe, on OptiFlow 13 Apr. 2020, RA by 17 Apr. 2020, D/C on 19 Apr. 2020): 13 Apr. 2020; RA by; Clinical Assessment (COVID-19 infection; Patient 4 (11 d), started severe+ 70% OptiFlow on 13 Apr. 2020): RA on 22 Apr. 2020; Clinical Assessment (COVID-19 infection; Patient 5 (2 d), started moderate on 13 Apr. 2020, nasal cannula, after one day on opaganib, D/C on 14 Apr. 2020 on RA): Dramatic improvement; C-Reactive Protein (CRP) change (COVID-19 infection; all six patients): reduction in C-Reactive Protein (CRP); clinical improvement, including reduced supplemental oxygenation and higher lymphocyte counts (COVID-19 infection; all six patients): measurable clinical improvement; cases requiring mechanical ventilation (COVID-19 infection; compared with 33% of controls): none of the cases required mechanical ventilation; lymphocyte count increase vs. matched controls (COVID-19 infection; five patients vs same-sex, same-severity control group): significantly faster increase in lymphocyte count; patients back to breathing room air (COVID-19 infection; of 6 treated patients): 5 patients; patients discharged from hospital (COVID-19 infection; of 6 treated patients): 3 patients; moderate to-severe patients improved significantly (COVID-19 infection; of seven compassionate use patients, patient #7 had only 1 day of treatment): 6 patients; 50% cytotoxicity reached in concentration range tested [1]: neither 50% inhibition nor 50% cytotoxicity were reached; 50% inhibition reached in concentration range tested ([2]; 0.05 to 11.25 μg/ml): neither 50% inhibition nor 50% cytotoxicity were reached; concentration at which complete inhibition of infectious virus production starts ([2]; 3 days incubation): 1 µg/mL; infectious virus production ([2]; opaganib 0.05 to 11.25 μg/ml, 3 days incubation): dose-dependent reduction in infectious virus production

Question: How did the blood clot length (ARDS induced thrombosis; 250 mg/kg oral gavage) turn out when `O=C(NCc1ccncc1)C12CC3CC(C1)CC(c1ccc(Cl)cc1)(C3)C2` [ABC294640, 3-(4-chlorophenyl)-adamantane-1-carboxylic acid (pyridin-4-ylmethyl)amide] was run?
Answer: The blood clot length was “reduction”.

Question: What about the blood clot weight (ARDS induced thrombosis; 250 mg/kg oral gavage) of the same compound?
Answer: Its blood clot weight is “reduction”.

Question: And the thrombosis (ARDS induced thrombosis; 250 mg/kg oral gavage 3, 24, 48, 72 h post LPS instillation, 30 min stasis)?
Answer: The thrombosis was “reduction of thrombosis”.

Question: And the total thrombus score (ARDS induced thrombosis; 250 mg/kg oral gavage, score 0 to 4)?
Answer: The total thrombus score was “reduction”.
